Consider 13 compounds from PubChem BioAssay (NCI).

Common to all, as to assay: NCI tumour cell line growth inhibition, 48 h
Test [1] deals with 786-0 renal.
In test [2] the test system is DU-145 prostate.
Test [3] deals with HS 578T breast.
The test system of test [4] is HT29 colon.
For test [5], the system named is MCF7 breast.
Test [6] concerns NCI-H23 lung.
Test [7] concerns NCI-H460 lung.
The subject of test [8] is NCI/ADR-RES ovarian.
Test [9] deals with PC-3 prostate.
In test [10] the test system is UACC-257 melanoma.

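Cells were grown in 96-well plates and exposed to each compound for 48 hours at five concentrations; endpoints were interpolated linearly between bracketing concentrations, or set to the highest concentration if not reached. TGI is the concentration that stops growth completely.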 Some results are limits rather than exact numbers.

`O=c1[nH]c2cc([N+](=O)[O-])c(Nc3c4ccccc4nc4ccccc34)c([N+](=O)[O-])c2[nH]1`: the TGI in test [1] was 17.6 µM; in test [2] it was 8.82 µM; in test [3], > 28.9 µM; in test [4] it was 9.33 µM; in [5] it was 8.36 µM; in test [6] it was 16 µM. For the same compound, the TGI in test [7] came to 7.75 µM; in [8], 10.9 µM; in test [9], 15.2 µM; in test [10] it was 11.2 µM.

`COc1cc2oc(=O)cc(C)c2c(OC)c1OC(C)=O`: the TGI in test [1], in [2], in [3], in [4], in test [5] and in test [6] was > 100 µM throughout. Further, the TGI in [8], in test [9] and in test [10] was > 100 µM in each case.

For the compound `CC(C#N)N(CCc1ccccc1)C(=O)c1ccccc1` (centres undefined), the TGI in test [1], in [2], in [3], in [4], in [5] and in test [6] was > 100 µM in each case. Besides, the TGI in test [8], in [9] and in test [10] was > 100 µM throughout.

As for `O=P(O)(O)C=C=C1CCCCC1`, the TGI in [1], in test [2], in test [3], in [4], in [5] and in test [6] was > 100 µM throughout. The TGI in test [7], in test [8], in test [9] and in test [10] was > 100 µM throughout.

Turning to `Nn1c(Sc2nc3ccccc3c(=O)n2N)nc2ccccc2c1=O`, the TGI in test [1] is 18.6 µM; in test [2] it was 56.8 µM; in test [3] it was > 53.7 µM; in [4], 14.3 µM; in [5], 27.4 µM; in [6] it was 5.43 µM. The TGI was found to be 51.7 µM in test [7], 28.4 µM in test [8], 28.4 µM in [9] and 38.1 µM in test [10].

Turning to `COc1cc2c(cc1O)CCN(C)[C@H]2Cc1ccc(Oc2c(O)c(OC)cc3c2C[C@H]2c4c(c(OC)c(OC)c(OC)c4-3)CCN2C)cc1`, the TGI in [1] was 9.4 µM; in test [2], 11.5 µM; in test [3], 17.7 µM; in test [4], 7.35 µM; in test [5], 10.7 µM; in [6] it was 12.9 µM. For the same compound, the TGI was 7.65 µM in [7], 14.1 µM in [8], 8.9 µM in [9] and 13.4 µM in test [10].

As to `O=c1oc2cccnc2n1CCCCN1CCN(c2ccccc2)CC1`, the TGI in [1], in [2], in test [3], in test [4], in [5] and in test [6] was > 100 µM in each case. The TGI in test [7], in [8], in test [9] and in [10] was > 100 µM each time.

With `COc1ccc(OC)c(C[P+](c2ccccc2)(c2ccccc2)c2ccccc2)c1`, the TGI in test [1] is > 100 µM; in [2] it was > 79.4 µM; in [3] it was 8.45 µM; in test [4], 11.8 µM; in test [5] it was > 40.7 µM; in [6], 11.8 µM. Also, the TGI is > 100 µM in test [7], > 100 µM in test [8], 8.56 µM in test [9] and 14.4 µM in test [10].

`C=CC(OC(C)=O)c1ccc(OC(C)=O)cc1` (centres undefined): the TGI in test [1] is 2.99 µM; in [2] it was 27.1 µM; in test [3], 16.6 µM; in [4] it was 32.7 µM; in [5], 26.5 µM; in test [6], 37.3 µM. The TGI in test [7] was 37.1 µM; in test [8], 54.3 µM; in [9], 7.82 µM; in test [10], 16 µM.

On to `CC1=CC[C@](C)(O)[C@@]2(C)CC[C@H]3C(=C(C)C)C(=O)C[C@]3(C)C[C@H]12`, for which the TGI in test [1], in test [2], in [3], in test [4], in [5] and in test [6] was > 50 µM each time. In addition, the TGI in [8], in [9] and in [10] was > 50 µM throughout.

With `COc1ccc(NC(=O)CC(=O)N2N=C(N(c3ccccc3)c3ccccc3)CC2c2ccccc2)cc1` (centres undefined), the TGI in test [1], in test [2], in test [3], in test [4], in test [5] and in test [6] was > 100 µM each time. The TGI in test [8], in test [9] and in [10] was > 100 µM in each case.

As for `COc1cccc(NC(=O)CC(=O)N2N=C(C)C(N=Nc3ccc(C(=O)O)cc3)C2=O)c1` (centres undefined), the TGI in [1], in test [2], in test [3], in test [4], in test [5] and in test [6] was > 100 µM throughout. The TGI in test [8], in test [9] and in test [10] was > 100 µM in each case.

For `N#C/C(=C1/c2cc([N+](=O)[O-])ccc2-c2c1cc([N+](=O)[O-])cc2[N+](=O)[O-])N1CCCCC1`, the TGI in [1], in test [2], in test [3], in [4], in [5] and in test [6] was > 100 µM each time. For the same compound, the TGI in [8], in test [9] and in test [10] was > 100 µM each time.
